Experimental data taken from publication PMC9122626 (2020).

What was measured:
[1] = tested on: human telomeric G4 DNA, dAGGG(TTAGGG)3 (DNA, G4) AGGGTTAGGGTTAGGGTTAGGG; test: thiazole orange displacement (fluorescence); conditions: 298 K; thiazole orange displaced; 0.25 μM G4, 0.50 μM TO
[2] = tested on: human telomeric G4 DNA, dAGGG(TTAGGG)3 (DNA, G4) AGGGTTAGGGTTAGGGTTAGGG; test: intrinsic fluorescence titration; conditions: 15 μM peptide; 0 to 18.16 μM G4; room temperature
[3] = tested on: human telomeric G4 DNA, dAGGG(TTAGGG)3 (DNA, G4) AGGGTTAGGGTTAGGGTTAGGG; test: EMSA; conditions: 30 μM G4; room temperature; 15-120 μM peptide
[4] = tested on: ds26 (DNA, duplex) CAATCGGATCGAATTCGATCCGATTG; test: ITC; conditions: Na+ 100 mM
[5] = tested on: human telomeric G4 DNA, dAGGG(TTAGGG)3 (DNA, G4) AGGGTTAGGGTTAGGGTTAGGG; test: time-resolved fluorescence (TCSPC); conditions: 100 mM Na+; 10 mM Tris, pH 7.3, 25 °C; 5.5 μM peptide; 0 to 10.5 μM G4
[6] = tested on: human telomeric G4 DNA, dAGGG(TTAGGG)3 (DNA, G4) AGGGTTAGGGTTAGGGTTAGGG; test: CD titration; conditions: Na+; aqueous buffer
[7] = tested on: human telomeric G4 DNA, dAGGG(TTAGGG)3 (DNA, G4) AGGGTTAGGGTTAGGGTTAGGG; test: ITC; conditions: Na+ 100 mM; 298.15 K; 64 μM DNA in cell, 700 μM peptide in syringe

**Q.** What does the source list for N[C@@H](Cc1ccc(O)cc1)C(=O)N[C@@H](CCC(=O)N[C@@H](CCC(=O)O)C(=O)O)C(=O)N[C@@H](CCC(=O)O)C(=O)O (racemic)?
**A.** IC50 [1]: ~ 8.4 μM; binding [2]: yes; binding [3]: yes; Ka [4]: 9600 M⁻¹; binding [5]: yes; binding [6]: yes; Ka [7]: 1.1e+06 M⁻¹
